Data reported in PubChem BioAssay AID504528 (Sanford-Burnham Center for Chemical Genomics, 2011).
Calls of active or inactive are those of the source.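 How the source made its calls: active means mean IC50 of 20 µM or lower; inactive means the rest.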

Test system: HEK-293T NF-kB-Luc cytotoxicity, resazurin fluorescence, 14 h
Assay: HEK-293T cell viability loss – cytotoxicity control for B-cell antigen receptor NF-kB inhibitors, SAR follow-up (AID 504528)

| SMILES | IC50 |
| --- | --- |
| CCOc1ccc(-c2nc(CSCC(=O)O)c(C)o2)cc1 | > 79 µM (inactive) |
| CCCCOc1ccc(-c2nc(CSCC(=O)O)c(C)o2)cc1 | > 79 µM (inactive) |
| CCNC(=O)CCc1nc(-c2cccc(F)c2)no1 | > 79 µM (inactive) |
| CC(C)c1ccc(-c2noc(CCC(=O)NC3CC3)n2)cc1 | > 79 µM (inactive) |
| Cc1ccc(-c2nc(CSCC(=O)NC3CC3)c(C)o2)cc1 | > 79 µM (inactive) |
| CCNC(=O)CCc1nc(-c2ccccc2Cl)no1 | > 79 µM (inactive) |
| CCOc1ccc(-c2nc(CSCC(=O)NCC3CC3)c(C)o2)cc1 | > 79 µM (inactive) |
| CCNC(=O)CCc1nc(-c2ccc(CC)cc2)no1 | > 79 µM (inactive) |
| CCCOc1ccc(-c2nc(CSCC(=O)NCc3ccco3)c(C)o2)cc1 | 59.8 µM (inactive) |
| CCNC(=O)CCc1nc(-c2c(Cl)cccc2Cl)no1 | > 79 µM (inactive) |
| CCNC(=O)CCc1nc(-c2ccccc2C)no1 | > 79 µM (inactive) |
| CCc1ccc(-c2nc(CSCC(=O)NC3CC3)c(-c3ccccc3)o2)cc1 | > 79 µM (inactive) |
| CCCCc1ccc(-c2noc(CCC(=O)NC(C)(C)C)n2)cc1 | > 79 µM (inactive) |
| Cc1ccc(-c2nc(CSCC(=O)NCc3ccco3)c(C)o2)cc1 | > 79 µM (inactive) |
| CCCCOc1ccc(-c2nc(CSCC(=O)NCc3ccco3)c(C)o2)cc1 | > 79 µM (inactive) |
| CCOc1ccccc1-c1nc(CSCC(=O)NC2CC2)c(C)o1 | > 79 µM (inactive) |
| CCNC(=O)CCc1nc(-c2cccc(OC)c2)no1 | > 79 µM (inactive) |
| COc1cccc(-c2cc(=O)c3cc(NC(=O)c4ccccc4)ccc3[nH]2)c1 | 60.4 µM (inactive) |
| CCc1ccc(-c2noc(CCC(=O)NC)n2)cc1 | > 79 µM (inactive) |

| SMILES | IC50 |
| --- | --- |
| CCCOc1ccc(-c2nc(CSCC(=O)NC3CC3)c(C)o2)cc1 | > 79 µM (inactive) |
| Cc1oc(-c2ccc(C(F)(F)F)cc2)nc1CSCC(=O)O | > 79 µM (inactive) |
| CCc1ccc(-c2noc(CCC(=O)NC(C)(C)C)n2)cc1 | > 79 µM (inactive) |
| CNC(=O)CCc1nc(-c2ccc(C(C)C)cc2)no1 | > 79 µM (inactive) |
| CCc1ccc(-c2noc(CCC(=O)NC(C)CC)n2)cc1 (configuration not stated) | > 79 µM (inactive) |
| O=C(CCc1nc(-c2ccccc2)no1)NC1CC1 | > 79 µM (inactive) |
| CCNC(=O)CCc1nc(-c2cccc(C)c2)no1 | > 79 µM (inactive) |
| CCNC(=O)CCc1nc(-c2ccc(C(C)C)cc2)no1 | > 79 µM (inactive) |
| COc1cccc(-c2cc(=O)c3cc(NC(=O)c4ccc(N(C)C)cc4)ccc3[nH]2)c1 | 2.25 µM |
| CCOc1ccc(-c2nc(CSCC(=O)NC3CC3)c(-c3ccccc3)o2)cc1 | > 79 µM (inactive) |
| CCOc1ccc(-c2nc(CSCC(N)=O)c(C)o2)cc1 | > 79 µM (inactive) |
| CCCOc1ccc(-c2nc(CSCC(=O)O)c(C)o2)cc1 | > 79 µM (inactive) |
| CCCCc1ccc(-c2noc(CCC(=O)NC)n2)cc1 | > 79 µM (inactive) |
| CCCCc1ccc(-c2noc(CCC(=O)NC3CC3)n2)cc1 | > 79 µM (inactive) |
| CCC(C)NC(=O)CCc1nc(-c2ccc(C(C)(C)C)cc2)no1 (configuration not stated) | > 79 µM (inactive) |
| CCOc1cccc(-c2nc(CSCC(=O)NC3CC3)c(C)o2)c1 | > 79 µM (inactive) |
| Cc1oc(-c2ccc(C(F)(F)F)cc2)nc1CSCC(=O)NC1CC1 | > 79 µM (inactive) |
| COc1ccc(C(=O)Nc2ccc3[nH]c(-c4cccc(OC)c4)cc(=O)c3c2)cc1 | > 79 µM (inactive) |
| Cc1oc(-c2ccc(OC(F)(F)F)cc2)nc1CSCC(=O)NC1CC1 | > 79 µM (inactive) |

| SMILES | IC50 |
| --- | --- |
| CCOc1ccc(-c2nc(CSCC(=O)N(C)C)c(C)o2)cc1 | > 79 µM (inactive) |
| CC(C)c1ccc(-c2noc(CCC(=O)NC(C)(C)C)n2)cc1 | > 79 µM (inactive) |
| CCOC(=O)CC(NC(=O)c1ccc(Br)cc1)c1ccc(F)c([N+](=O)[O-])c1 (configuration not stated) | > 79 µM (inactive) |
| Cc1oc(-c2ccc(OC(F)(F)F)cc2)nc1CSCC(=O)O | > 79 µM (inactive) |
| CCOc1ccc(-c2nc(CSCC(=O)N3CCOCC3)c(C)o2)cc1 | > 79 µM (inactive) |
| CCC(C)NC(=O)CCc1nc(-c2ccc(C(C)C)cc2)no1 (configuration not stated) | > 79 µM (inactive) |
| CC(C)(C)c1ccc(-c2noc(CCC(=O)NC3CCC3)n2)cc1 | > 79 µM (inactive) |
| CCCCOc1ccc(-c2nc(CSCC(=O)NC3CC3)c(C)o2)cc1 | > 79 µM (inactive) |
| C#CCNC(=O)CSCc1nc(-c2ccc(OCC)cc2)oc1C | > 79 µM (inactive) |
| CCOc1ccc(-c2nc(CSCC(=O)NC)c(C)o2)cc1 | > 79 µM (inactive) |
| CCOc1ccc(-c2nc(CSCC(=O)NC(C)(C)C)c(C)o2)cc1 | > 79 µM (inactive) |
| CC(C)Nc1ccc(C(CC(=O)O)NC(=O)c2ccccc2)cc1[N+](=O)[O-] (configuration not stated) | > 79 µM (inactive) |
| CCCCc1ccc(-c2noc(CCC(=O)NCC)n2)cc1 | > 79 µM (inactive) |
| CCc1ccc(-c2noc(CCC(=O)NC3CC3)n2)cc1 | > 79 µM (inactive) |
| CCOc1ccc(-c2nc(CSCC(=O)NC3CCC3)c(C)o2)cc1 | > 79 µM (inactive) |
| CCC(C)NC(=O)CCc1nc(-c2ccccc2)no1 (configuration not stated) | > 79 µM (inactive) |
| CC(C)(C)NC(=O)CCc1nc(-c2ccccc2)no1 | > 79 µM (inactive) |
| CCCCc1ccc(-c2noc(CCC(=O)NC(C)CC)n2)cc1 (configuration not stated) | > 79 µM (inactive) |
| CCOc1ccccc1-c1nc(CSCC(=O)O)c(C)o1 | > 79 µM (inactive) |
